Laboratory results reported in ChEMBL document CHEMBL3826929, “Discovery and Preclinical Evaluation of BMS-711939, an Oxybenzylglycine Based PPARα Selective Agonist” (ACS Med Chem Lett, 2016).

Columns and labels:
Cytochrome P450 2B6 = Cytochrome P450 2B6 (Homo sapiens, UniProt P20813); assay: Inhibition of CYP2B6 (unknown origin); type: ADME
[1] = Half life in cynomolgus monkey at 1 mg/kg, iv; type: ADME, organism-based, Macaca fascicularis; conditions: in vivo
[2] = biological target: Liver X receptor (Homo sapiens) (UniProt Q13133+P55055); assay: Agonist activity at human LXR by transactivation assay relative to standard compound; type: protein assay
Cytochrome P450 2C9 = Cytochrome P450 2C9 (Homo sapiens, UniProt P11712); assay: Inhibition of CYP2C9 in human TC5 cells; type: ADME, cell-based
[3] = Plasma clearance in cynomolgus monkey at 1 mg/kg, iv; type: ADME, organism-based, Macaca fascicularis
Rhesus monkey = assay: Cardiovascular toxicity in monkey assessed as change in hemodynamic effect up to 20 mg/kg administered as single dose by telemetry test; type: organism-based, Macaca mulatta; conditions: in vivo
Mus musculus [4] = assay: Decrease in triglyceride level in transgenic mouse expressing human ApoA1 at 50 mg/kg administered qd through oral gavage measured after 10 days relative to vehicle control; type: functional; parameters: scale not given: the % may be the effect or the level left
Homo sapiens [5] = species on record: Homo sapiens; assay: Inhibition of sodium channel (unknown origin) assessed as channel block at 10 uM and 4 Hz by electrophysiological method
[6] = Cmax in dog at 2 mg/kg, po; type: ADME, organism-based, Canis lupus familiaris; parameters: dose 2 mg/kg, route oral; conditions: in vivo
[7] = Cmax in Balb/c mouse at 10 mg/kg, po; type: ADME, organism-based; parameters: dose 10 mg/kg, route oral; conditions: in vivo
[8] = Cardiovascular toxicity in purkinje fiber (unknown origin) assessed as change in action potential duration at 90% repolarization at 30 uM
[9] = AUC (0 to 8 hrs) in Balb/c mouse at 5 mg/kg, iv; type: ADME, organism-based; parameters: dose 5 mg/kg, time < 8 hr, route intravenous; conditions: in vivo
CHO = assay: Clastogenecity in CHO cells; type: ADME, cell-based, Cricetulus griseus; conditions: chinese hamster
Syrian golden hamster [10] = assay: Decrease in liver triglyceride level in high fat-diet fed syrian golden hamster model of dyslipidemia at 10 mg/kg administered qd through oral gavage measured after 21 days by FPLC analysis relative to control; type: functional, Mesocricetus auratus; parameters: scale not given: the % may be the effect or the level left
Syrian golden hamster [11] = assay: Decrease in plasma triglyceride level in high fat-diet fed syrian golden hamster model of dyslipidemia at 3 mg/kg administered qd through oral gavage measured after 21 days by FPLC analysis relative to control; type: functional, Mesocricetus auratus; parameters: scale not given: the % may be the effect or the level left
[12] = AUC (0 to 8 hrs) in Sprague-Dawley rat at 8 mg/kg, po; type: ADME, organism-based; parameters: time < 8 hr, dose 8 mg/kg, route oral; conditions: in vivo
[13] = Oral bioavailability in dog at 2 mg/kg; type: ADME, organism-based, Canis lupus familiaris; conditions: in vivo
[14] = Volume of distribution at steady state in Sprague-Dawley rat at 4 mg/kg, iv; type: ADME, organism-based; conditions: in vivo, read-out: Vdss
[15] = Oral bioavailability in Balb/c mouse at 10 mg/kg; type: ADME, organism-based; conditions: in vivo
[16] = biological target: Glucocorticoid receptor (Homo sapiens) (UniProt P04150); assay: Agonist activity at human GR by transactivation assay relative to standard compound
Mus musculus [17] = assay: Increase in HDL cholesterol level in transgenic mouse expressing human ApoA1 at 3 mg/kg administered qd through oral gavage measured after 10 days relative to vehicle control; type: functional
Syrian golden hamster [18] = assay: Decrease in liver triglyceride level in high fat-diet fed syrian golden hamster model of dyslipidemia at 1 mg/kg administered qd through oral gavage measured after 21 days by FPLC analysis relative to control; type: functional, Mesocricetus auratus; parameters: scale not given: the % may be the effect or the level left
[19] = biological target: Voltage-gated inwardly rectifying potassium channel KCNH2 (Homo sapiens, UniProt Q12809); assay: Inhibition of human ERG by flux-based assay
Cytochrome P450 2D6 [20] = biological target: T1, Cytochrome P450 2D6 (Homo sapiens, UniProt P10635); assay: Inhibition of CYP2D6 (unknown origin); type: ADME
[21] = AUC (0 to 8 hrs) in dog at 2 mg/kg, po; type: ADME, organism-based, Canis lupus familiaris; parameters: dose 2 mg/kg, time < 8 hr, route oral; conditions: in vivo
HEK293 = assay: Selectivity ratio of EC50 for Gal4-tagged human PPAR-gamma expressed in HEK cells to EC50 for Gal4-tagged human PPAR-alpha expressed in HEK cells; type: cell-based
Cytochrome P450 2D6 [22] = biological target: T1, Cytochrome P450 2D6; assay: Inhibition of CYP2D6 in human TC5 cells; type: ADME, cell-based
[23] = Cmax in cynomolgus monkey at 2 mg/kg, po; type: ADME, organism-based, Macaca fascicularis; parameters: dose 2 mg/kg, route oral; conditions: in vivo
Liver X receptor = Liver X receptor (Homo sapiens, UniProt Q13133+P55055); assay: Agonist activity at human LXR by transactivation assay; type: protein assay
Mus musculus [24] = assay: Decrease in triglyceride level in transgenic mouse expressing human ApoA1 at 10 mg/kg administered qd through oral gavage measured after 10 days relative to vehicle control; type: functional; parameters: scale not given: the % may be the effect or the level left
Mus musculus [25] = assay: Increase in serum ApoA1 level in transgenic mouse expressing human ApoA1 compound administered qd through oral gavage measured after 10 days; type: functional, organism-based
Cytochrome P450 3A4 = Cytochrome P450 3A4 (Homo sapiens, UniProt P08684); assay: Inhibition of CYP3A4 in human TC5 cells; type: ADME, cell-based
[26] = Half life in dog at 1 mg/kg, iv; type: ADME, organism-based, Canis lupus familiaris; conditions: in vivo
Homo sapiens [27] = species on record: Homo sapiens; assay: Inhibition of sodium channel (unknown origin) assessed as channel block at 10 uM and 1 Hz by electrophysiology method
Cytochrome P450 1A2 = Cytochrome P450 1A2 (Homo sapiens, UniProt P05177); assay: Inhibition of CYP1A2 (unknown origin); type: ADME
Syrian golden hamster [28] = assay: Decrease in liver triglyceride level in high fat-diet fed syrian golden hamster model of dyslipidemia administered qd through oral gavage measured after 21 days by FPLC analysis; type: functional, organism-based; conditions: Mesocricetus auratus
[29] = Volume of distribution at steady state in dog at 1 mg/kg, iv; type: ADME, organism-based, Canis lupus familiaris; conditions: in vivo, read-out: Vdss
Cytochrome P450 2C19 = Cytochrome P450 2C19 (Homo sapiens, UniProt P33261); assay: Inhibition of CYP2C19 in human TC5 cells; type: ADME, cell-based
Syrian golden hamster [30] = assay: Decrease in plasma LDL cholesterol level in high fat-diet fed syrian golden hamster model of dyslipidemia administered qd through oral gavage measured after 21 days by FPLC analysis relative to control; type: functional, organism-based; conditions: Mesocricetus auratus
[31] = Oral bioavailability in cynomolgus monkey at 2 mg/kg; type: ADME, organism-based, Macaca fascicularis; conditions: in vivo
Syrian golden hamster [32] = assay: Decrease in liver triglyceride level in high fat-diet fed syrian golden hamster model of dyslipidemia at 3 mg/kg administered qd through oral gavage measured after 21 days by FPLC analysis relative to control; type: functional, Mesocricetus auratus; parameters: scale not given: the % may be the effect or the level left
[33] = Protein binding in mouse plasma; type: ADME, cell-free; conditions: read-out: PPB (converted)
Cytochrome P450 2C8 = Cytochrome P450 2C8 (Homo sapiens, UniProt P10632); assay: Inhibition of CYP2C8 (unknown origin); type: ADME
Cytochrome P450 2C8, sequence (P10632 whole entry): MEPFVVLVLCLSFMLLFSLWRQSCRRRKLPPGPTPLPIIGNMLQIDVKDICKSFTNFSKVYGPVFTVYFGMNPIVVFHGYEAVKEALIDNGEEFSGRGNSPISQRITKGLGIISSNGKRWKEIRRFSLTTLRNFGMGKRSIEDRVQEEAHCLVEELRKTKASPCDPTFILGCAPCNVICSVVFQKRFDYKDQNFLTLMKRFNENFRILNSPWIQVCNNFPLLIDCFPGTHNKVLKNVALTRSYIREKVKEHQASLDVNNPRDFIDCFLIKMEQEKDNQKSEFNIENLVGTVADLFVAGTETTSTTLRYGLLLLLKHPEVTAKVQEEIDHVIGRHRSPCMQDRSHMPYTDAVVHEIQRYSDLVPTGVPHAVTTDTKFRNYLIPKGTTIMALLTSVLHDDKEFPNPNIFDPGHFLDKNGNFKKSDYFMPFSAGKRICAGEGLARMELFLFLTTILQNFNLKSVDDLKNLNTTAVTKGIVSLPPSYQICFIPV

T1 sequence (P10635 whole entry): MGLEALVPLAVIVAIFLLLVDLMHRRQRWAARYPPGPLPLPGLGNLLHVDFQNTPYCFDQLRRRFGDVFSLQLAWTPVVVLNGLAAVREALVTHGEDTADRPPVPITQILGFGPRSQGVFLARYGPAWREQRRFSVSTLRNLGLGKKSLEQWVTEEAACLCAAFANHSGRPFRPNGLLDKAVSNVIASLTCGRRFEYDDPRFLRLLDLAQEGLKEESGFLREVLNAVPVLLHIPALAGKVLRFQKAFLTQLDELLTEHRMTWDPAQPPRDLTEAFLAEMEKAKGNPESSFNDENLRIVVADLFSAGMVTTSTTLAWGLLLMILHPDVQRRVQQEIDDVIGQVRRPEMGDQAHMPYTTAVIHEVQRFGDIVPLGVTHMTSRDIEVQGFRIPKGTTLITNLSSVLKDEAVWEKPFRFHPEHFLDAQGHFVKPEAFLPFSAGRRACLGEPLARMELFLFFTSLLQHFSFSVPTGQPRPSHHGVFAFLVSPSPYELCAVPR
Cytochrome P450 2B6, sequence (P20813 whole entry): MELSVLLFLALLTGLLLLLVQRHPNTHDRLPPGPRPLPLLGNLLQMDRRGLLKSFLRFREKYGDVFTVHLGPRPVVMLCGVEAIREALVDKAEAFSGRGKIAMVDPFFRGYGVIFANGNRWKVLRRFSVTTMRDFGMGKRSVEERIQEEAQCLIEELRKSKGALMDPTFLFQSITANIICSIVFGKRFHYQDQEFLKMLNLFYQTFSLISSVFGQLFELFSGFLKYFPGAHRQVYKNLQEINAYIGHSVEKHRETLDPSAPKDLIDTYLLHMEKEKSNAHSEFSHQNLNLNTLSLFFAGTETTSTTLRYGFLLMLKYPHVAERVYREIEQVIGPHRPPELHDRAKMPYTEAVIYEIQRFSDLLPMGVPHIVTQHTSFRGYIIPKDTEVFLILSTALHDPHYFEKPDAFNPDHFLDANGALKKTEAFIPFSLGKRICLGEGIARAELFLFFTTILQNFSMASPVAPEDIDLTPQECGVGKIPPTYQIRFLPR
Cytochrome P450 2C9, sequence (P11712 whole entry): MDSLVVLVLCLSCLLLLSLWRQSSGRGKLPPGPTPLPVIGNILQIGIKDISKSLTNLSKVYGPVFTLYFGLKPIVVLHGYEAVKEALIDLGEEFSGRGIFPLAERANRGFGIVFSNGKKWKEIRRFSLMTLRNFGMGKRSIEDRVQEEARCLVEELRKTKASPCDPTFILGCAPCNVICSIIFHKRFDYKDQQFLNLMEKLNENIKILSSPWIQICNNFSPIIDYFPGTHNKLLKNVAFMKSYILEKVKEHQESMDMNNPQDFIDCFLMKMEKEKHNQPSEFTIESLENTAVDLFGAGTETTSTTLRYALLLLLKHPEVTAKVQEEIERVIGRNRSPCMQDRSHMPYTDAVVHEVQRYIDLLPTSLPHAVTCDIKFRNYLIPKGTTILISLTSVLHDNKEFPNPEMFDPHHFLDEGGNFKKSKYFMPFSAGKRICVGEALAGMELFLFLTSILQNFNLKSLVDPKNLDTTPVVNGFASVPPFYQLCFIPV
Cytochrome P450 3A4, sequence (P08684 whole entry): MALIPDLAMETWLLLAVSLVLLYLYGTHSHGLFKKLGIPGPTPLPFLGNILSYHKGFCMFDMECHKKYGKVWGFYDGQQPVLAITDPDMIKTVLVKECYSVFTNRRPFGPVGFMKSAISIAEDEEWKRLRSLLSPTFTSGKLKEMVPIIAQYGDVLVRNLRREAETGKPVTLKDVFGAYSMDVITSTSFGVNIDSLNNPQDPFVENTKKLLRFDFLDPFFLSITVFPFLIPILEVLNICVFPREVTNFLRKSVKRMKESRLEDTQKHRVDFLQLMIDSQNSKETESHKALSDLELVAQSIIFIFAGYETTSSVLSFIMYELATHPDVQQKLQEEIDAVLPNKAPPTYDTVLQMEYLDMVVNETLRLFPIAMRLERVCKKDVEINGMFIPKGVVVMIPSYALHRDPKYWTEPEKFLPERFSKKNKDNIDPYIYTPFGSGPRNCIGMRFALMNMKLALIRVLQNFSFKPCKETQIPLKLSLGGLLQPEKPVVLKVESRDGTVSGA
Glucocorticoid receptor (Homo sapiens), sequence (P04150 whole entry): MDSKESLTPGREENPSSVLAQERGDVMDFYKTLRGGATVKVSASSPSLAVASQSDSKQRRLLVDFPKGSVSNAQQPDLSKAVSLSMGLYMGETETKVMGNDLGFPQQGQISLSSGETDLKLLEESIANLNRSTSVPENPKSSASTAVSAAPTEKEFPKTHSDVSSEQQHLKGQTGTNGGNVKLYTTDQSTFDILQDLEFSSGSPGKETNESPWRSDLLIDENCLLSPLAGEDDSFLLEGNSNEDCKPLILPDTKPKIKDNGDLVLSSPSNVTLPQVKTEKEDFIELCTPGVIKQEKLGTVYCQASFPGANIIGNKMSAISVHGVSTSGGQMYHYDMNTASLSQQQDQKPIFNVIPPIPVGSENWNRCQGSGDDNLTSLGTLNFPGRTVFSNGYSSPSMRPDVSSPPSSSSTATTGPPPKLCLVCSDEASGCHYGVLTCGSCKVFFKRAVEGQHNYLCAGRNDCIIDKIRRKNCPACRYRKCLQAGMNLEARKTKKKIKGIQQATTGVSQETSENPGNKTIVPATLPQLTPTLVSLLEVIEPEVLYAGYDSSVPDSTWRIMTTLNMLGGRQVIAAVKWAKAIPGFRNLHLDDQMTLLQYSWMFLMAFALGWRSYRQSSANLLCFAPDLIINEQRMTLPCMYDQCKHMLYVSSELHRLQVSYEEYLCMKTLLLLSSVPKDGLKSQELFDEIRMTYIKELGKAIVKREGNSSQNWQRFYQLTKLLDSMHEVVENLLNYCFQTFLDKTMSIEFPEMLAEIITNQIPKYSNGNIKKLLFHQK
Cytochrome P450 2C19, sequence (P33261 whole entry): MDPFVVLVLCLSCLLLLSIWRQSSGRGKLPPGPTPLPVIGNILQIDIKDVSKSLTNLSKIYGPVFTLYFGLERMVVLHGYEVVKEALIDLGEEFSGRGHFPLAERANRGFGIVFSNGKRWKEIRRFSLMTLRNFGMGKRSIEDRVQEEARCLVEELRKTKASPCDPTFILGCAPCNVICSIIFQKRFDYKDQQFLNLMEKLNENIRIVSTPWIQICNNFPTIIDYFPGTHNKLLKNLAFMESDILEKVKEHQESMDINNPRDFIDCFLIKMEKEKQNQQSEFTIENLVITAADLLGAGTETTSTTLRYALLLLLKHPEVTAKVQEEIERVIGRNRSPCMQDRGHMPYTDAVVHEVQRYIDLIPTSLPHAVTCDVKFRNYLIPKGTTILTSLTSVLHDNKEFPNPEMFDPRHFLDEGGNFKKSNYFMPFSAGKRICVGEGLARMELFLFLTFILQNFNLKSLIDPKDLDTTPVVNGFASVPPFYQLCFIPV
Voltage-gated inwardly rectifying potassium channel KCNH2, sequence (Q12809 whole entry): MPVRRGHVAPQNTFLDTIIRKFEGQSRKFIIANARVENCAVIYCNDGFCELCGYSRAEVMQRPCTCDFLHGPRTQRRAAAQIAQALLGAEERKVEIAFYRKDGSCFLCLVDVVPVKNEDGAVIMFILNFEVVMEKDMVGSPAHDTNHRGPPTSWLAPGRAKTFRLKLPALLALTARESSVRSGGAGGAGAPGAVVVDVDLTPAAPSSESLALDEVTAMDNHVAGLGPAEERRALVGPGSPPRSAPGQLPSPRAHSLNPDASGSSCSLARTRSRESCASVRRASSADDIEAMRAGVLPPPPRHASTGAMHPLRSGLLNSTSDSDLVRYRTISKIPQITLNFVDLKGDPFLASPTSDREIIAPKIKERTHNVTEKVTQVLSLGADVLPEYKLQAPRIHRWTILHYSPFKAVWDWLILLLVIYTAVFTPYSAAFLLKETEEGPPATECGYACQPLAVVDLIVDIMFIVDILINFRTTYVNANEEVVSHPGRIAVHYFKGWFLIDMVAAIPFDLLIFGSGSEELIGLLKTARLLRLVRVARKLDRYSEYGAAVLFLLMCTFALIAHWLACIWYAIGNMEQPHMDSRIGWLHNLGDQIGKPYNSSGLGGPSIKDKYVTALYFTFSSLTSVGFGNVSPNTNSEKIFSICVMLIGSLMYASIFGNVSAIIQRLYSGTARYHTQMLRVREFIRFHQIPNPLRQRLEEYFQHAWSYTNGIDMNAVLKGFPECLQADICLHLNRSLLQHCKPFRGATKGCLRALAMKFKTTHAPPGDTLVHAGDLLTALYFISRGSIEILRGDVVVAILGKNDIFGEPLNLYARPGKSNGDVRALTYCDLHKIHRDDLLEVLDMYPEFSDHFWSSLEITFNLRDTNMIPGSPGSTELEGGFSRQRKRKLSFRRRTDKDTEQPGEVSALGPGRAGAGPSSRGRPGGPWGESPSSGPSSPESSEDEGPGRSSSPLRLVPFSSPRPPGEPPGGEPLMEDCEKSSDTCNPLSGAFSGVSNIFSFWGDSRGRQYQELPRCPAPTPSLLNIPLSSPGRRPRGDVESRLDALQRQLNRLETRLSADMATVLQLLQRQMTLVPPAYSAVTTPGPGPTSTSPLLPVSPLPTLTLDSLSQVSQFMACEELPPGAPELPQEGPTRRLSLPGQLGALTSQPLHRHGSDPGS

With COC(=O)N(CC(=O)O)Cc1cc(OCc2nc(-c3ccc(Cl)cc3)oc2C)ccc1F the IC50 (Cytochrome P450 2B6) was over 40 µM, the half-life [1] was 26.3 h and the Efficacy [2] was under 15%. The IC50 (Cytochrome P450 2C9) was over 150 µM, the clearance [3] was 5.9 mL/min/kg and the Activity (Rhesus monkey) was “Non-toxic”. For the same compound, the Activity (Mus musculus [4]) was 58.1%, the inhibition (Homo sapiens [5]) was 14% and the Cmax [6] was 1500 nM. For the same compound, the Cmax [7] was 22700 nM, the Activity [8] was -5.4% and the AUC(0-t) at 8 h [9] was 13 µM·h. The Activity (CHO) was “Non-toxic”, the Activity (Syrian golden hamster [10]) was 48% and the Activity (Syrian golden hamster [11]) was 74%. The AUC(0-t) at 8 h [12] was 32 µM·h, the bioavailability [13] was 59% and the Vd [14] was 2.2 L/kg. For the same compound, the bioavailability [15] was 66%, the Efficacy [16] was under 15% and the Activity (Mus musculus [17]) was 16%. The Activity (Syrian golden hamster [18]) was 18.7%, the IC50 [19] was over 80 µM and the IC50 (Cytochrome P450 2D6 [20]) was over 40 µM. It also gave an AUC(0-t) at 8 h [21] of 4 µM·h, a Ratio EC50 (HEK293) of 1130 and an IC50 (Cytochrome P450 2D6 [22]) of over 150 µM. The Cmax [23] was 1400 nM, the EC50 (Liver X receptor) was over 25 µM and the Activity (Mus musculus [24]) was 23.5%. For the same compound, the Activity (Mus musculus [25]) was “Dose-dependent effect”, the IC50 (Cytochrome P450 3A4) was over 150 µM and the half-life [26] was 5.5 h. The inhibition (Homo sapiens [27]) was 12%, the IC50 (Cytochrome P450 1A2) was over 40 µM and the Activity (Syrian golden hamster [28]) was “Dose-dependent effect”. The Vd [29] was 2.1 L/kg, the IC50 (Cytochrome P450 2C19) was over 150 µM and the Activity (Syrian golden hamster [30]) was “Dose-dependent effect”. For the same compound, the bioavailability [31] was 65%, the Activity (Syrian golden hamster [32]) was 39.8% and the fraction unbound [33] was 0.002. It also gave an IC50 (Cytochrome P450 2C8) of over 40 µM.
